Laboratory results reported in patent US12285434B2, “Therapeutic, preventive, or improvement agent for inflammatory disease and allergic disease” (The University of Tokyo, priority 2018, dated 2025).

Key:
[1] = system: histamine-induced vascular permeability in mouse ears; assay: Modified Miles assay: histamine-induced vascular hyperpermeability (Evans blue extravasation); format: in vivo, mouse (C57BL/6); conditions: pretreatment 0.1 μg/ear, 15 minutes, before 400 μg histamine
Method: Fifteen (15) minutes after the intracutaneous injection, a vehicle (80% acetone) or histamine (400 μg, manufactured by Molecular Probes) was percutaneously administered to the ventral surface of the ears. To evaluate vascular permeability, Evans blue (50 mg/kg, manufactured by Sigma) was injected intravenously 5 minutes after the administration of histamine. The mice were then euthanized by cervical dislocation 30 minutes after the injection of Evans blue. The ears were dissected, dried at 55° C., and weighed. Extravasated Evans blue present in the ears was extracted in formamide (manufactured by Molecular Probes), and quantified spectrophotometrically (manufactured by PerkinElmer Japan Co., Ltd.) at a wavelength of 610 nm.

HUVECs = assay: Endothelial barrier function: transendothelial electrical resistance (TER); format: cell-based, human
Method: In Examples 4 to 6, human umbilical vein endothelial cells (hereinafter, sometimes referred to as “HUVECs”, manufactured by Lonza) were cultured in EGM-2 (manufactured by Lonza K.K.). These cells (passages 4 to 9) were used for experiments after 4-hour starvation in EBM-2 (manufactured by Lonza K.K.) containing 2% FBS.
The in vitro endothelial barrier function was evaluated by measuring the transendothelial electrical resistance (hereinafter, sometimes referred to as “TER”) of the HUVECs prepared in the above item (1) over time. Specifically, the transendothelial electrical resistance was measured using an xCELLigence Real-Time Cell Analyzer DP system (manufactured by Roche). The system monitors changes in TER across an interdigitated microelectrode at the bottom of tissue culture E-plates (manufactured by Roche). The HUVECs (8,000 cells) were plated on the E-plates and incubated until confluent. Then, the following operation (a) or (b) was performed.
(a) Each reagent was added to plates on which the HUVECs were cultured, so as to give a vehicle, 1 U/mL thrombin, 1 μM forskolin, or 0.1 μM or 0.3 μM 5,6-DiHETE (FIGS. 4A and 4B).
(b) A vehicle or […] was added to plates on which the HUVECs were cultured, so as to attain 10 μM. […] Thirty (30) minutes after the addition, 10 μM histamine was added to each plate 30 minutes after the addition (FIGS. 4C and 4D).
In the above operations (a) and (b), the TER was measured every 60 seconds. For normalization, the cell index value at each time point is shown as a ratio relative to the initial value. The maximum normalized cell index after stimulation was quantified and represented as maximal response. Note that it is known that the disruption of the endothelial barrier function lowers the TER, but that the enhancement of the endothelial barrier function increases the TER.

[2] = system: DSS-induced colitis model mice; assay: DSS-induced colitis: histologic score and colon edema (wet/dry weight ratio); format: in vivo, mouse (C57BL/6); conditions: Day 14; 50 μg/kg/day intraperitoneally on Days 9, 11 and 13
Source text: C57BL/6 strain mice (male, 8 to 12 weeks old) were fed with water containing 2% dextran sodium sulfate (manufactured by MP Bio, hereinafter sometimes referred to as “DSS”) for 4 days to prepare colitis model mice (hereinafter, sometimes referred to as “colitis group” in Examples 7 to 10). The mice taken with DSS for 4 days were fed with normal water from Day 5. The DSS intake start date was defined as Day 1 of the test, and the day before the DSS intake start date was defined as Day 0 of the test. In addition, a group in which C57BL/6 strain mice (male, 8 to 12 weeks old) were fed with normal water was defined as a “healthy group” (the same applies to Examples 8 to 10).
To investigate the role of 5,6-DiHETE in the healing phase, the colitis model mice prepared in Example 7(1) were intraperitoneally injected with 5,6-DiHETE (manufactured by Cayman Chemical) (50 μg/kg/day) or HC-067047 (manufactured by Cayman Chemical) (1 mg/kg/day) on Days 9, 11 and 13 of the test (hereinafter, sometimes referred to as “5,6-DiHETE-administered group” and “HC-067047-administered group,” respectively, in Examples 9 and 10). HC-067047 is known to inhibit an increase of calcium ion concentration in endothelial cells.
Distal colon sections on Day 14 of the test in the healthy group, colitis group, 5,6-DiHETE-administered group and HC-067047-administered group were fixed in 4% paraformaldehyde for 24 hours, embedded in paraffin and cut into 2 μm-thick sections. Hematoxylin staining and eosin staining of these sections were performed according to a conventional method. The histologic score was then decided according to the description of Kruschewski M. et al., Digestive Diseases and Sciences, 46: 2336-2343 (2001) to evaluate the colitis severity.
The wet/dry weight ratio was used as an index of colon edema (Rachmilewitz D. et al., Gastroenterology, 97: 326-337(1989)). Specifically, the distal colon was collected, and the wet weight was measured. The distal colon was then dried at 60 C for 24 hours, and, thereafter, the dry weight was measured.

anaphylaxis model mice = assay: Histamine-induced anaphylaxis: blood pressure and body temperature; format: in vivo, mouse (C57BL/6); conditions: 50 μg/kg intravenously 15 minutes before histamine 50 mg/kg
Method: Histamine (50 mg/kg) lysed in a physiological saline solution was intravenously administered to C57BL/6 strain mice (male, 8 to 12 weeks old) to prepare anaphylaxis model mice (hereinafter, sometimes referred to as “anaphylaxis group”). […] L-NAME is an NO synthesis inhibitor. As indices of anaphylactic symptoms, a body temperature decrease and a blood pressure decrease were observed.

## CC/C=C\C/C=C\C/C=C\C/C=C\C[C@@H](O)[C@@H](O)CCCC(=O)O (racemic) [5,6-DiHETE, (±) 5,6-dihydroxy-8Z,11Z,14Z,17Z-eicosatetraenoic acid]
[1]
  dye extravasation (Evans blue) in ear: 0.06 ± 0.02 µg/mg
HUVECs; 0.1 μM and 0.3 μM, alone
  change of TER: did not change the TER
HUVECs; pretreatment 0.3 μM, 15 minutes, before histamine 10 μM
  TER, minimum (normalized cell index): 0.915±0.012 fold
[2]
  colon edema, wet/dry weight ratio: 5.2±0.2
  histologic score of colitis: 3.3±0.5
Anaphylaxis model mice
  blood pressure: 93.3±4.9 mmHg
  body temperature decrease: −0.2±0.1 °C
